ChEMBL document CHEMBL5303304, “EUbOPEN Chemogenomics Library - IncuCyte” (2023)

What was measured:
Assay type in all cases: toxicity, cell-based
HEK-293T = assay: Incucyte cell viability with HEK293T; settings: human, 10 µM, compound concentration 10 uM
Fibroblast = assay: Incucyte cell viability with human fibroblast; settings: 10 µM, compound concentration 10 uM
U2OS = assay: Incucyte cell viability with U2OS; settings: human, 10 µM, compound concentration 10 uM
Further: unitless GR value; below 1 slowed growth and below 0 cell loss.

Structure (SMILES)	Growth Rate (HEK-293T; 0 h, replicate number 1)	Growth Rate (HEK-293T; 0 h, replicate number 2)	Growth Rate (HEK-293T; 6 h, replicate number 1)	Growth Rate (HEK-293T; 6 h, replicate number 2)	Growth Rate (HEK-293T; 12 h, replicate number 1)	Growth Rate (HEK-293T; 12 h, replicate number 2)	Growth Rate (HEK-293T; 18 h, replicate number 1)	Growth Rate (HEK-293T; 18 h, replicate number 2)	Growth Rate (HEK-293T; 24 h, replicate number 1)	Growth Rate (HEK-293T; 24 h, replicate number 2)	Growth Rate (Fibroblast; 12 h, replicate number 2)	Growth Rate (Fibroblast; 18 h, replicate number 1)	Growth Rate (Fibroblast; 18 h, replicate number 2)	Growth Rate (Fibroblast; 24 h, replicate number 1)	Growth Rate (Fibroblast; 24 h, replicate number 2)	Growth Rate (U2OS; 0 h, replicate number 1)	Growth Rate (U2OS; 12 h, replicate number 1)	Growth Rate (U2OS; 12 h, replicate number 2)	Growth Rate (Fibroblast; 6 h, replicate number 1)	Growth Rate (Fibroblast; 12 h, replicate number 1)	other results
COc1ccc(F)c(F)c1C(=O)c1cnc(NC2CCN(S(C)(=O)=O)CC2)nc1N [RG-547]	-1	0.15	0.16	-0.37	-0.1	-0.5	-0.15	-0.47	-0.13	-0.37	0.53	0.96	0.28	0.65	0.15	-1	0.73	0.02			Growth Rate (Fibroblast; 0 h, replicate number 1): -1; Growth Rate (Fibroblast; 0 h, replicate number 2): 0.02; Growth Rate (Fibroblast; 6 h, replicate number 2): 0.62; Growth Rate (U2OS; 0 h, replicate number 2): 0.68; Growth Rate (U2OS; 6 h, replicate number 2): 0.23; Growth Rate (U2OS; 18 h, replicate number 1): 0.18; Growth Rate (U2OS; 18 h, replicate number 2): 0.02; Growth Rate (U2OS; 24 h, replicate number 1): 0.06; Growth Rate (U2OS; 24 h, replicate number 2): -0.11
C=CC(=O)Nc1ccc2[nH]c(=O)n(C3CCN(Cc4ccc(-c5ccc6c(c5)NC(=O)CO6)cc4)CC3)c2c1 [RL2578]			0.24	0.23	0.24	0.43	0.28	0.45	0.26	0.42	0.71	0.72	0.52	0.45	0.51	0.69	0.76	0.91	0.84	0.87	Growth Rate (Fibroblast; 0 h, replicate number 1): -1; Growth Rate (Fibroblast; 6 h, replicate number 2): 0.95; Growth Rate (U2OS; 6 h, replicate number 1): 0.83; Growth Rate (U2OS; 18 h, replicate number 1): 0.75; Growth Rate (U2OS; 18 h, replicate number 2): 0.78; Growth Rate (U2OS; 24 h, replicate number 1): 0.93; Growth Rate (U2OS; 24 h, replicate number 2): 0.62
N#CC[C@H](C1CCCC1)n1cc(-c2ncnc3[nH]ccc23)cn1 [RUXOLITINIB]	-0.91	-0.15	0.27		0.86											-1					Growth Rate (Fibroblast; 0 h, replicate number 1): -1
Oc1ccc(-c2nc(-c3ccncc3)c(-c3ccc(F)cc3)[nH]2)cc1 [SB-202190]	0	-0.17									0.62					-0.88			0.11	-0.11	Growth Rate (Fibroblast; 0 h, replicate number 2): -0.18; Growth Rate (U2OS; 0 h, replicate number 2): -0.95
O=C(Nc1ccccc1Br)N[C@@H]1CCN(c2ccc(C(F)(F)F)cn2)C1 [SB-705498]				-0.43	0.76	-0.08	0.32	0.1	0.31	0.07	0.55		0.51	0.34	0.58	-0.73	0.83		0.4		Growth Rate (Fibroblast; 0 h, replicate number 1): 0.33; Growth Rate (Fibroblast; 0 h, replicate number 2): 0.7; Growth Rate (Fibroblast; 6 h, replicate number 2): -0.3; Growth Rate (U2OS; 0 h, replicate number 2): -0.91; Growth Rate (U2OS; 6 h, replicate number 1): 0.99
COc1ccc(-n2nc(C(F)(F)F)cc2-c2ccc(Cl)cc2)cc1 [SC-560]	0.2	0.61		0.8						0.9	0.09	0.62	0.54	0.68	0.62			0.86	0.63	0.59	Growth Rate (Fibroblast; 0 h, replicate number 1): -1; Growth Rate (Fibroblast; 6 h, replicate number 2): -0.87; Growth Rate (U2OS; 6 h, replicate number 1): 0.67; Growth Rate (U2OS; 6 h, replicate number 2): 0.83; Growth Rate (U2OS; 18 h, replicate number 2): 0.95; Growth Rate (U2OS; 24 h, replicate number 2): 0.98
CO[C@H]1C[C@@H]2CC[C@@H](C)[C@@](O)(O2)C(=O)C(=O)N2CCCC[C@H]2C(=O)O[C@H]([C@H](C)C[C@@H]2CC[C@@H](O)[C@H](OC)C2)CC(=O)[C@H](C)/C=C(\C)[C@@H](O)[C@@H](OC)C(=O)[C@H](C)C[C@H](C)/C=C/C=C/C=C/1C [SIROLIMUS]	-0.78	-0.17	-0.13	0.36	-0.06	0.13	0.16	0.23	0.26	0.3	0.93	0.23	0.97	0.35	0.84		0.93	0.81	0.43	0.47	Growth Rate (U2OS; 0 h, replicate number 2): 0.94; Growth Rate (U2OS; 24 h, replicate number 1): 0.94
CN1CCN(c2nc(C3=C(c4c[nH]c5ccccc45)C(=O)NC3=O)c3ccccc3n2)CC1 [SOTRASTAURIN]	-0.3	-0.61														-0.78			-0.88	-1	Growth Rate (Fibroblast; 0 h, replicate number 2): -0.97; Growth Rate (U2OS; 0 h, replicate number 2): -0.29
CCOC(=O)N1CCC(CN(Cc2ccc(Cl)cc2)Cc2ccc([N+](=O)[O-])s2)C1 (stereo unspecified) [SR9009]			0.39	0.23	0.42	0.27	0.48	0.28	0.41	0.35	0.2	0.3	0.38	0.48	0.39	-0.35	0.94		0.43	0.41	
CCCCCNC(=O)N1CCC(CN(Cc2ccc(Cl)cc2)Cc2ccc([N+](=O)[O-])s2)C1 (stereo unspecified) [SR9011]		-0.74	0.47	0.86	0.42	0.62	0.51	0.59	0.54	0.49	0.55	0.55	0.66	0.54	0.64	0.35	0.81	0.86	0.11	0.48	Growth Rate (Fibroblast; 6 h, replicate number 2): -0.29; Growth Rate (U2OS; 6 h, replicate number 1): 0.88; Growth Rate (U2OS; 6 h, replicate number 2): 0.94; Growth Rate (U2OS; 18 h, replicate number 1): 0.9; Growth Rate (U2OS; 18 h, replicate number 2): 0.94; Growth Rate (U2OS; 24 h, replicate number 1): 0.85; Growth Rate (U2OS; 24 h, replicate number 2): 0.83
CC[N+](CC)(CC)CCOc1ccc(/C=C/c2ccccc2)cc1.[I-] [STILONIUM IODIDE]	1	0.44	-0.34	0	-0.18	-0.14	-0.14	-0.12	-0.22	-0.15	0.37	0.28	0.62		0.58	-0.67		1			Growth Rate (Fibroblast; 0 h, replicate number 1): 0.94; Growth Rate (Fibroblast; 6 h, replicate number 2): -1; Growth Rate (U2OS; 0 h, replicate number 2): -0.99; Growth Rate (U2OS; 18 h, replicate number 2): 0.93; Growth Rate (U2OS; 24 h, replicate number 2): 0.84
O=C1C[C@@H]2OCC=C3CN4CC[C@]56c7ccccc7N1[C@H]5[C@H]2[C@H]3C[C@H]46 [STRYCHNINE]	0.93	0.94		0.44		0.86						0.57	0.93	0.81	0.91		0.95	0.85	0.71	-0.92	Growth Rate (Fibroblast; 0 h, replicate number 2): -0.75; Growth Rate (U2OS; 6 h, replicate number 2): 0.65; Growth Rate (U2OS; 18 h, replicate number 1): 0.88; Growth Rate (U2OS; 18 h, replicate number 2): 0.77; Growth Rate (U2OS; 24 h, replicate number 1): 0.87; Growth Rate (U2OS; 24 h, replicate number 2): 0.91
Nc1ccc(S(=O)(=O)Nc2ccnn2-c2ccccc2)cc1 [SULFAPHENAZOLE]			0.11		0.6		0.44	0.98	0.45					0.6			0.83	1	-0.25	-1	Growth Rate (Fibroblast; 0 h, replicate number 1): -0.67; Growth Rate (U2OS; 0 h, replicate number 2): -0.29; Growth Rate (U2OS; 6 h, replicate number 1): 0.27; Growth Rate (U2OS; 6 h, replicate number 2): 0.05; Growth Rate (U2OS; 18 h, replicate number 1): 0.83; Growth Rate (U2OS; 18 h, replicate number 2): 0.88; Growth Rate (U2OS; 24 h, replicate number 1): 0.86; Growth Rate (U2OS; 24 h, replicate number 2): 0.91
